Square brackets hold non-standard residues; d marks the D form. Peptide text beside a SMILES is read from it. * marks the point of attachment. Nle = CCCC[C@H](N)C(=O)O; Cbz = O=C(OCc1ccccc1)*
Tests used:
[1] = tested on: Notch-1; test: Notch Western blot in MDA-MB231 cells; assay type: cell-based, human
Experimental: Notch silencing was confirmed by Western blot using commercial goat polyclonal antibodies from Santa Cruz Biotechnology to Notch-1 (C-20, Cat# sc-6014 S) and Notch-4 (C-19, Cat# sc-8644). Total cell lysates were prepared as follows: cells grown on 6 cm dishes were scraped in lysis buffer containing 1×PBS, 1% Nonidet P40, 0.5% deoxycholate, 0.1% SDS, freshly added aprotinin (45 μg/ml), phenylmethylsulfonyl fluoride (10 μg/ml), and sodium orthovanadate (10 μM). Lysates were sonicated 4 times for 5 seconds each, followed by 30 minutes incubation on ice. Lysates were centrifuged at 10,000 g for 20 minutes at 4° C. Supernatants were used as total cell lysates. Nuclear extracts were prepared as follows: 10,000,000 cells were pelleted, washed, and quickly frozen in a dry ice bath. Pellets were thawed by adding 100 μl of buffer 1 (10 mM HEPES, pH 7.9, 10 mM KCl, 1.5 mM MgCl2, 1 mM DTT). Nuclei were pelleted and lysed in 15 μl Buffer 2 (20 mM HEPES, pH7.9, 0.4 M NaCl, 1.5 mM MgCl2, 25% glycerol, 0.2 mM EDTA, 1 mM DTT, and 0.5 mM PMSF). Lysates were diluted in 50-70 μl Buffer 3 (20 mM HEPES, pH 7.9, 50 mM KCl, 20% glycerol, 0.2 mM EDTA, 1 mM DTT, 0.5 mM PMSF). Protein concentrations were estimated using the BCA protein assay (Pierce). Supernatants were boiled in reducing SDS sample buffer (Novex). Twenty μg protein per lane were run on a 3-8% Tris acetate gel (Invitrogen) in Tris Acetate Reducing Running Buffer (Novex). Protein bands were transferred onto PVDF membranes (BioRad) using transfer buffer (Novex). Membranes were then blocked overnight at 4° C. in 2% blocking solution in TBS (Roche). Primary antibodies were diluted in 2% Boehringer blocking solution (total volume 5 ml). Membranes were incubated for one hour at room temperature with shaking, then washed 6 times for 10 minutes each in TBS wash buffer. Membranes were incubated in secondary antibody in 2% of blocking solution for 30 minutes, then washed 6 times for 10 minutes each at RT in wash buffer. Bands were detected with chemiluminescent reagent (Roche) according to the manufacturer's directions. […]

[2] = tested on: RPMI8226 myeloma cells; test: Apoptosis of myeloma cell line RPMI8226 (Annexin V-FITC); assay type: cell-based; conditions: for apoptotic response: after 18 hrs
Experimental: (§1) The cells were evaluated for induction of NOXA and an increase in cleaved caspase 3, by Western blot analysis and for cell viability using APO TARGET Annexin V-FITC staining kits (Biosource) as described above. The caspase 3 antibody was purchased from Abcam (Cambridge, Mass.). […] At a concentration of 10 μM, bortezomib induces approximately equal NOXA levels compared to the other proteasome inhibitor tested (MG-132) and the dual inhibitor z-Leu-Leu-Nle-CHO. The induction of NOXA coincided with the appearance of cleaved caspase 3, which is involved in the final stage of cell death. […] FIG. 12 is graph showing representative results from bortezomib treatment. The induction of apoptosis is concentration-dependent (FIG. 12); with doses as low as 0.01 μM bortezomib trigger significant apoptosis (p<0.05).

[3] = tested on: NOXA; test: NOXA induction in multiple myeloma cell lines (Western blot); assay type: cell-based; conditions: RPMI8226 and U266; 24 hours; bortezomib 0.01 to 10 μM, MG-132 10 μM, z-Leu-Leu-Nle-CHO 10 μM
Experimental: as §1, with “Two different multiple myeloma cell lines (RMP18226 and U266) (ATCC, Rockville, Md.) were treated for 24 hours with various concentrations of the proteasome inhibitors bortezomib (0.01 to 10 μM) and MG-132 (10 μM), or the dual inhibitor z-Leu-Leu-Nle-CHO (10 μM). The cells” for “The cells”

Compound	expression of Notch-1 and Notch-4 ([1]; MDA-MB231 / HMEC, data not shown)	apoptotic response [2]	NOXA induction [3]	lowest dose triggering significant apoptosis (p<0.05) [2]	N^IC and N^TM levels ([1]; MDA-MB231, 0.5, 1 or 2 μM, 24 h, virtually complete at 2 μM)
5′-AAGTGTCTGAGGCCAGCAAGA-3′ [Notch-1 siRNA]	strongly inhibited the expression of both Notch-1 and -4				
CC(C)C[C@@H](C=O)NC(=O)[C@H](CC(C)C)NC(=O)[C@H](CC(C)C)NC(=O)OCc1ccccc1 [MG-132, benzoxycarbonyl-Leucyl-Leucyl-Leucyl-aldehyde] (Cbz-Leu-Leu-Leu-aldehyde)		triggered significant apoptotic response after 18 hrs	found to induce NOXA		
CC(C)C[C@H](NC(=O)[C@H](Cc1ccccc1)NC(=O)c1cnccn1)B(O)O [bortezomib, N-(2-pyrazine)carbonyl-L-phenylalanine-L-leucine boronic acid]		triggered significant apoptotic response after 18 hrs	induces NOXA in a concentration dependent manner	0.01 µM	
CCCC[C@@H](C=O)NC(=O)[C@H](CC(C)C)NC(=O)[C@H](CC(C)C)NC(=O)OCc1ccccc1 [z-Leu-Leu-Nle-CHO, N-benzyloxycarbonyl-leucyl-leucyl-norleucinal] (Cbz-Leu-Leu-[Nle]-aldehyde)		triggered significant apoptotic response after 18 hrs	found to induce NOXA		dose-dependent decrease in N^IC and relative accumulation of N^TM
